# Assays:
# mouse acinar cells = assay: Total cholesterol content of mouse acinar cells (ex vivo pancreatitis models or cholesterol chelator); assay type: cell-based; set-up: total cholesterol in acinar cells, physiologic doses: dose or concentration left out as unconfirmed; settings: for cholesterol overload, mouse acinar cells: ex-vivo pancreatitis, 1 h, 100 nM CCK, 1 mM carbachol or 500 μM TLCS
# Description: (§1) FIGS. 8A-8M show derangement of cholesterol metabolism in experimental pancreatitis. Characteristics of cholesterol metabolism were measured, as detailed in FIGS. 4A-4R, in pancreas of WT mice subjected to pancreatitis induced with cerulein (CER-AP), L-arginine (Arg-AP), or CDE diet (CDE-AP) (A, B, and E-G); ex vivo pancreatitis induced in WT mouse (C and I-M) or human acinar cells (D) with 100 nM CCK (CCK-AP) or 1 mM carbachol; and isolated pancreatic mitochondria (H). (B) Cholesterol ester (CE) heatmap; each column represents an individual mouse. (F) IB analysis of the indicated proteins. (G) LAL activity was measured by a fluorogenic assay (n=6 mice per condition). (H) Cholesterol content was measured by enzymatic assay. (I-M) Filipin colocalization with indicated proteins was quantified as detailed in FIGS. 2A-2L. Each symbol in A, C-E, and H represents an individual mouse, or cell or mitochondria preparation (n=3-15 per condition). Each symbol in J, K, and M corresponds to 20-30 cells in a different field (n=10-20 fields from 3 cell preparations per condition). Values are mean±SEM. *P<0.05, **P<0.01, ***P<0.001 vs. the same parameter in control/untreated pancreas, acinar cells or isolated mitochondria. Significance was determined by 2-tailed Student's t test (B, E, H, J, K, and M) or 1-way ANOVA followed by Tukey's multiple comparison test (A, C, and D). Scale bars: 10 μm.
# (§2) Parameters of cholesterol metabolism were measured in (A, B, E, F) pancreas of mice subjected to pancreatitis induced with cerulean (CER-AP), L-arginine (Arg-AP), or combination of EtOH+palmitoleic acid (EtOH+POA); and (C) ex-vivo models on mouse and human acinar cells treated for 1 h with 100 nM CCK, […] or 500 μM TLCS. In (A), each column in CE heatmap represents an individual mouse. (B, C) Total cholesterol content was measured with cholesterol assay kit (Abcam, ab65390). […] Each symbol corresponds to 20-30 cells in each of 8 high-expression (qPCR) of proteins regulating cholesterol synthesis (4 mice/group). (B-D) Each symbol represents an individual animal or cell preparation. (A-D, F) Values are mean±SE (*p<0.05, **p<0.01, ***p<0.001 vs saline or control). Signficance was determined by 2-tailed student's t test.
# (§3) Ex vivo pancreatitis models were performed on mouse and human acinar cells, and human pancreas slices by incubation with supramaximal CCK (100 nM) or carbachol (1 mM), as described previously (80, 81).
# (§4) Total cholesterol content was measured with Cholesterol Assay kit per manufacturer's instructions. Samples of mouse pancreas and liver, cell pellet homogenates, subcellular fractions, isolated mitochondria, and serum were diluted in the reaction buffer containing cholesterol probe and incubated at 37° C. for 1 h in the dark. To measure total cholesterol, the samples were subjected to digestion with cholesterol esterase. To measure non-esterified cholesterol, the esterase was omitted from the assay.
# Fluorescence intensity (for cholesterol) and absorbance (for TAG) were measured in a Tecan microplate reader. Each measurement was in duplicate, and the values were normalized per mg total protein in the sample.
# human acinar cells = assay: Total cholesterol content of human acinar cells (ex vivo pancreatitis models); assay type: cell-based; settings: for cholesterol overload, human acinar cells: ex-vivo pancreatitis, 1 h, 100 nM CCK, 1 mM carbachol or 500 μM TLCS
# Description: as §1, §2, §3
# Human pancreas slices were obtained as in (12), from portions of live normal human pancreata from pre-terminal donors that were not used for transplantation and diverted to research (provided by Trillium Gift of Life Network, Toronto, Ontario, year 2020) or from normal portions of pancreatic cancer operations. Pancreas was cut into ~3×3×3 mm pieces and embedded with 37° C. low melting 3.8% agarose gel in extracellular solution containing (mM): 125 NaCl, 2.5 KCl, 1 MgCl2, 2 CaCl2, 1.25 NaH2PO4, 26 NaHCO3, 2 sodium pyruvate, 0.25 ascorbic acid, 3 myo-inositol, 6 lactic acid, and 7 glucose, and placed on ice to solidify the gel. The gelled tissue blocks were sliced with Vibratome into 120 μm-thick slices; slices were washed with the same extracellular solution, placed in 199 medium containing 0.1 mg/mL soybean trypsin inhibitor, and treated with CCK-8 (CCK) or carbachol for ex-vivo pancreatitis.
# Total cholesterol content was measured with Cholesterol Assay kit per manufacturer's instructions. […]
# NPC1 [1] = target: T1, NPC1 (Mus musculus, UniProt O35604); assay: Effects of U18666A with LDL on WT acinar cells; assay type: cell-based; settings: LDL 30 μg/mL + 10 μM U18666A, 16 hours
# T1 sequence (O35604 23-1277): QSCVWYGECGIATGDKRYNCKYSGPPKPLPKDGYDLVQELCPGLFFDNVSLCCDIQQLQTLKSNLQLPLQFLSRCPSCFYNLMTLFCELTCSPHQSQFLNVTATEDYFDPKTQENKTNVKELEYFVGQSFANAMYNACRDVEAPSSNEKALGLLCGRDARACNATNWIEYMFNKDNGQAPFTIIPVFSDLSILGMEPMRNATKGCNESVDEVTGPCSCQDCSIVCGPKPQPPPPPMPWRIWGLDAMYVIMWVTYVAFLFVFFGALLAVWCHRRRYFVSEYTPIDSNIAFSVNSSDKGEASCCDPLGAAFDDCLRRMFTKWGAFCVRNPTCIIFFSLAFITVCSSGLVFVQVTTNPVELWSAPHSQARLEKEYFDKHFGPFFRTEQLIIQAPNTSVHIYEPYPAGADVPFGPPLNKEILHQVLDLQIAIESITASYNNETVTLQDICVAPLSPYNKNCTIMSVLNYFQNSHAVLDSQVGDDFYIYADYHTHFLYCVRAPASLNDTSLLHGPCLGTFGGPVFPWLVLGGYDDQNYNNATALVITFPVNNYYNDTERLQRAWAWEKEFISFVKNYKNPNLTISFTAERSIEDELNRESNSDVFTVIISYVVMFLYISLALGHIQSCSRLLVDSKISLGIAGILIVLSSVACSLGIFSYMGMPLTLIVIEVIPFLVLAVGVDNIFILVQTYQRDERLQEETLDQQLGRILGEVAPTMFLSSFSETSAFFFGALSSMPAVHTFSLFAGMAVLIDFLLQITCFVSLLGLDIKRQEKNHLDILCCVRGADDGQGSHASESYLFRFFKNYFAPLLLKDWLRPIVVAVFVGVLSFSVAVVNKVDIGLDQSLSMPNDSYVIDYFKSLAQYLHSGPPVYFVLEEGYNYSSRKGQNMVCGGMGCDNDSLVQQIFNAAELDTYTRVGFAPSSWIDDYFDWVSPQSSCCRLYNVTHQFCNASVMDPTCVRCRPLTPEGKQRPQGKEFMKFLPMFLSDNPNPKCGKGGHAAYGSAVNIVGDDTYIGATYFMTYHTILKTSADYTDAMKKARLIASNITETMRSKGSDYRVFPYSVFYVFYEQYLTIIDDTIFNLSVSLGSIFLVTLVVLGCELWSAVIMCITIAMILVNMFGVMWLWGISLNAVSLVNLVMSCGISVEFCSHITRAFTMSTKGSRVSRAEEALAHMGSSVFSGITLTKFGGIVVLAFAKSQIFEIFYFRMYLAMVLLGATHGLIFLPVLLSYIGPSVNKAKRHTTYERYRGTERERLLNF
# Description: (§5) FIGS. 10A-10N show deranged cholesterol metabolism causes acinar cell damage, while its normalization ameliorates experimental pancreatitis. (A-D) Cholesterol content and trypsin activity were measured (per mg protein) in WT mouse acinar cells incubated for 1 hour without and with methyl-β-cyclodextrin (MCD; 10 mM) or cholesterol-loaded MCD (MCD-Chol; 200 μg/mL), in the presence or absence of 100 nM CCK. Values are expressed relative to those in cells without MCD/MCD-Chol. (E-J) WT mice received daily i.p. injections of the LXR agonist T0901317 (T09), simvastatin (Sim; 20 mg/kg each), or vehicle. On day 4, mice were subjected to CER-AP and pancreata collected for analyses (see also FIG. 20). Cholesterol content (E), trypsin activity (F), and pancreas histopathology (H&E staining; G) were measured. (H, I, L, and N) IB analysis of markers/mediators of autophagy (LC3, p62), ER stress (CHOP, GRP-78), and mitophagy (Parkin). Ub, ubiquitylated proteins. (J) Mitochondrial fragmentation was assessed by immunostaining for Tom20, as detailed in FIG. 7G. (K and L) Mouse acinar cells were treated for 16 hours with LDL (30 μg/mL) or the combination of LDL and 10 μM U18666A. (M and N) Mice received injections of U18666A as detailed in FIG. 9B. Pancreas histopathology (H&E staining; M) and levels of autophagy markers/mediators (N) were measured. Each symbol in A-F and I represents an individual mouse or cell preparation. Values are mean±SEM from 3 to 7 mice or cell preparations per condition. ^§ P<0.05, ^§§ P<0.01 vs. control cells (without MCD/MCD-Chol). ***P<0.001 vs. saline-treated mice. ^#P<0.05, ^##P<0.01, ^###P<0.001 vs. CER-AP alone (no inhibitors). Significance was determined by 2-tailed Student's t test (A-D) or 1-way ANOVA followed by Tukey's multiple comparison test (E, F, and I). Scale bars: 10 μm.
# To examine the effect of disrupted cholesterol turnover, WT acinar cells were incubated with LDL-cholesterol in the presence and absence of the NPC1 inhibitor U18666A. U18666A caused cholesterol accumulation in LE/Ly (filipin staining; FIG. 10K), resulting in impaired autophagy (manifested by concomitant accumulation of LC3-II and ubiquitylated proteins) and increases in CHOP and Parkin (FIG. 10L).
# Immunoblots were developed using enhanced chemiluminescence detection kit (Pierce), and band intensities were quantified by densitometry using FluorChem HD2 imaging system (Alpha Innotech/ProteinSimple).
# Staining for neutral lipids and free cholesterol was performed by incubation of fixed-frozen tissue sections or fixed cells with, respectively, 2 μg/ml BODIPY493/503 for 45 min or 100 µg/ml filipin for 2 h at room temperature. For double labeling, BODIPY493/503 or filipin were applied after fixed-frozen tissue or cell sections incubated with primary and secondary antibodies.
# NPC1 [2] = target: T1, NPC1; assay: Effects of NPC1 inhibitor U18666A on WT mouse pancreas; assay type: in vivo; settings: 15 days
# Description: FIGS. 9A-9E show cerulein pancreatitis decreases pancreatic levels of GNPTAB and mediators of cholesterol trafficking through LE/Ly. (A, D, and E) IB analysis of the indicated proteins in pancreas of WT mice subjected to CER-AP and in Gnptab^−/− mice. NS, nonspecific band. (B and C) Cholesterol content was measured in pancreas of (B) WT mice that received daily i.p. injections of the NPC1 inhibitor U18666A (10 mg/kg) or vehicle for 15 days and (C) Lamp2^−/− mice. Each symbol in B, C, and E represents an individual mouse. Values are mean±SEM from 3 to 5 mice per condition. ***P<0.001 vs. the same parameter in WT control/untreated or saline-treated mice. Significance was determined by 2-tailed Student's t test (B and C) or 1-way ANOVA followed by Tukey's multiple comparison test (E).
# as §5
# viii. In Vivo Treatments of Mice
# 12-week-old WT mice were subjected for 4 consecutive days to daily i.p. injections of 20 mg/kg simvastatin (8,9) or 20 mg/kg T0901317 (10); or 10 mg/kg U18666A for 15 days (11). Control mice received vehicle injections. Some of the simvastatin- and T0901317-treated mice were subjected to CER-AP on day 4, as indicated in corresponding figures.
# as §4
# Pancreatitis responses were measured as previously described (1-7). Serum amylase and lipase were measured in a Hitachi 707 analyzer. Acinar cell vacuolization and necrosis were quantified on H&E stained pancreatic tissue sections; at least 1000 acinar cells/mouse were analyzed in several high-power fields. ATP was measured in tissue homogenates using bioluminescence assay (3-5).
# [3] = supramaximal (100 nM) CCK-8 or carbachol, ex vivo AP
SMILES,"cholesterol overload, mouse acinar cells (mouse acinar cells)","cholesterol overload, human acinar cells (human acinar cells)","CHOP, acinar cells (NPC1 [1])","LC3-II (impaired autophagy), acinar cells (NPC1 [1])","Parkin, acinar cells (NPC1 [1])",cholesterol in LE/Ly (filipin staining) (NPC1 [1]),"ubiquitylated proteins (impaired autophagy), acinar cells (NPC1 [1])","cholesterol content in WT mouse pancreas, U18666A (NPC1 [2]; 10 mg/kg daily i.p.)",LC3-II in mouse pancreas (NPC1 [2]; 10 mg/kg i.p. daily),"acinar cell vacuolization, mice (NPC1 [2]; 10 mg/kg i.p. daily)","inflammation, mouse pancreas (NPC1 [2]; 10 mg/kg i.p. daily)",p62 in mouse pancreas (NPC1 [2]; 10 mg/kg i.p. daily),ubiquitylated proteins in mouse pancreas (NPC1 [2]; 10 mg/kg i.p. daily),"necrosis, mouse pancreas (NPC1 [2]; 10 mg/kg i.p. daily, up to ~) [%]","total cholesterol in acinar cells, physiologic doses (mouse acinar cells; physiologic doses of CCK or carbachol)","cholesterol content, mouse acinar cells, supramaximal stimulation (mouse acinar cells; [3])","cholesterol content, human acinar cells, supramaximal stimulation (human acinar cells; [3])"
C[C@H](CCC(=O)NCCS(=O)(=O)O)[C@H]1CC[C@H]2[C@@H]3CC[C@@H]4C[C@H](OS(=O)(=O)O)CC[C@]4(C)[C@H]3CC[C@]12C [TLCS],prominent,prominent,,,,,,,,,,,,,,,
"CCN(CC)CCO[C@H]1CC[C@@]2(C)C(=CC[C@@H]3[C@@H]2CC[C@]2(C)C(=O)CC[C@@H]32)C1 [U18666A, 3-beta-[2-(diethylamino)ethoxy] androst-5-en-17-one]",,,increases,accumulation,increases,accumulation,accumulation,elevated,accumulation,increased,inflammation,accumulation,accumulation,≤ 20,,,
C[N+](C)(C)CCOC(N)=O [carbachol],prominent,prominent,,,,,,,,,,,,,did not alter,increased,increased
